Test results from PubChem BioAssay AID1259407 (Chemical Carcinogenesis Research Information System (CCRIS), 2018).
Calls of active or inactive are those of the source. No rule for the calls is given here.

Test system: CCRIS mutagenicity, Ames/micronucleus/aberration tests
Assay: CCRIS mutagenicity studies
[1] = Test System: AMES SALMONELLA TYPHIMURIUM, Strain/Indicator: TA100, Metabolic Activation: HAMSTER, LIVER, S-9, AROCLOR 1254 (10%), Method: PREINCUBATION
[2] = Test System: AMES SALMONELLA TYPHIMURIUM, Strain/Indicator: TA100, Metabolic Activation: NONE, Method: PREINCUBATION
[3] = Test System: AMES SALMONELLA TYPHIMURIUM, Strain/Indicator: TA100, Metabolic Activation: RAT, LIVER, S-9, AROCLOR 1254 (10%), Method: PREINCUBATION
[4] = Test System: AMES SALMONELLA TYPHIMURIUM, Strain/Indicator: TA1535, Metabolic Activation: HAMSTER, LIVER, S-9, AROCLOR 1254 (10%), Method: PREINCUBATION
[5] = Test System: AMES SALMONELLA TYPHIMURIUM, Strain/Indicator: TA1535, Metabolic Activation: NONE, Method: PREINCUBATION
[6] = Test System: AMES SALMONELLA TYPHIMURIUM, Strain/Indicator: TA1535, Metabolic Activation: RAT, LIVER, S-9, AROCLOR 1254 (10%), Method: PREINCUBATION
[7] = Test System: AMES SALMONELLA TYPHIMURIUM, Strain/Indicator: TA98, Metabolic Activation: NONE, Method: STANDARD PLATE
[8] = Test System: AMES SALMONELLA TYPHIMURIUM, Strain/Indicator: TA1535, Metabolic Activation: NONE, Method: STANDARD PLATE
[9] = Test System: AMES SALMONELLA TYPHIMURIUM, Strain/Indicator: TA1537, Metabolic Activation: NONE, Method: STANDARD PLATE
[10] = Test System: AMES SALMONELLA TYPHIMURIUM, Strain/Indicator: TA1538, Metabolic Activation: NONE, Method: STANDARD PLATE
[11] = Test System: AMES SALMONELLA TYPHIMURIUM, Strain/Indicator: TA100, Metabolic Activation: NONE, Method: STANDARD PLATE
[12] = Test System: AMES SALMONELLA TYPHIMURIUM, Strain/Indicator: TA100, Metabolic Activation: RAT, LIVER, S-9, AROCLOR 1254, Method: STANDARD PLATE

OCCN1CN(CCO)CN(CCO)C1
mutagenic call (Test System: AMES SALMONELLA TYPHIMURIUM, Strain/Indicator: TA98, Metabolic Activation: HAMSTER, LIVER, S-9, AROCLOR 1254 (10%), Method: PREINCUBATION): inactive; negative
mutagenic call (Test System: AMES SALMONELLA TYPHIMURIUM, Strain/Indicator: TA98, Metabolic Activation: NONE, Method: PREINCUBATION): inactive; negative
mutagenic call (Test System: AMES SALMONELLA TYPHIMURIUM, Strain/Indicator: TA98, Metabolic Activation: RAT, LIVER, S-9, AROCLOR 1254 (10%), Method: PREINCUBATION): inactive; negative
mutagenic call [1]: active; positive
mutagenic call [2]: inactive; negative
mutagenic call [3]: inactive; negative
mutagenic call [4]: inactive; negative
mutagenic call [5]: inactive; negative
mutagenic call [6]: inactive; negative
mutagenic call (Test System: AMES SALMONELLA TYPHIMURIUM, Strain/Indicator: TA1537, Metabolic Activation: HAMSTER, LIVER, S-9, AROCLOR 1254 (10%), Method: PREINCUBATION): inactive; negative
mutagenic call (Test System: AMES SALMONELLA TYPHIMURIUM, Strain/Indicator: TA1537, Metabolic Activation: NONE, Method: PREINCUBATION): inactive; negative
mutagenic call (Test System: AMES SALMONELLA TYPHIMURIUM, Strain/Indicator: TA1537, Metabolic Activation: RAT, LIVER, S-9, AROCLOR 1254 (10%), Method: PREINCUBATION): inactive; negative

CC(C)NCC1CCc2cc(CO)c([N+](=O)[O-])cc2N1 (stereo not given)
mutagenic call [7]: active; positive
mutagenic call (Test System: AMES SALMONELLA TYPHIMURIUM, Strain/Indicator: TA98, Metabolic Activation: RAT, LIVER, S-9, AROCLOR 1254 OR PHENOBARBITOL, Method: STANDARD PLATE): active; positive
mutagenic call (Test System: AMES SALMONELLA TYPHIMURIUM, Strain/Indicator: TA100(FR1), Metabolic Activation: NONE, Method: STANDARD PLATE): inactive; negative
mutagenic call (Test System: AMES SALMONELLA TYPHIMURIUM, Strain/Indicator: TA100(FR1), Metabolic Activation: RAT, LIVER, S-9, PHENOBARBITAL AND 3-METHYLCHOLANTHRENE, Method: STANDARD PLATE): inactive; negative
mutagenic call (Test System: AMES SALMONELLA TYPHIMURIUM, Strain/Indicator: TA100, Metabolic Activation: RAT, LIVER, S-9, AROCLOR 1254 OR PHENOBARBITOL, Method: STANDARD PLATE): active; positive
mutagenic call (Test System: AMES SALMONELLA TYPHIMURIUM, Strain/Indicator: TA100, Metabolic Activation: RAT, LIVER, S-9, PHENOBARBITAL AND 3-METHYLCHOLANTHRENE, Method: STANDARD PLATE): inactive; negative
mutagenic call [8]: inactive; negative
mutagenic call (Test System: AMES SALMONELLA TYPHIMURIUM, Strain/Indicator: TA1535, Metabolic Activation: RAT, LIVER, S-9, AROCLOR 1254 OR PHENOBARBITOL, Method: STANDARD PLATE): inactive; negative
mutagenic call [9]: inactive; negative
mutagenic call (Test System: AMES SALMONELLA TYPHIMURIUM, Strain/Indicator: TA1537, Metabolic Activation: RAT, LIVER, S-9, AROCLOR 1254 OR PHENOBARBITOL, Method: STANDARD PLATE): inactive; negative
mutagenic call [10]: inactive; negative
mutagenic call (Test System: AMES SALMONELLA TYPHIMURIUM, Strain/Indicator: TA1538, Metabolic Activation: RAT, LIVER, S-9, AROCLOR 1254 OR PHENOBARBITOL, Method: STANDARD PLATE): inactive; negative
mutagenic call (Test System: CHINESE HAMSTER V-79, Strain/Indicator: V-79/6-THIOGUANINE, Metabolic Activation: NONE): active; positive
mutagenic call (Test System: CHINESE HAMSTER V-79, Strain/Indicator: V-79/6-THIOGUANINE, Metabolic Activation: RAT, LIVER, HEPATOCYTES): active; positive
mutagenic call (Test System: CHINESE HAMSTER V-79, Strain/Indicator: V-79/OUABAIN, Metabolic Activation: NONE): active; positive
mutagenic call (Test System: CHINESE HAMSTER V-79, Strain/Indicator: V-79/OUABAIN, Metabolic Activation: RAT, LIVER, HEPATOCYTES): active; positive

CC(=O)Nc1ccc(C(=O)[C@H]2O[C@H]2c2ccccc2)cc1
mutagenic call [7]: inactive; negative
mutagenic call (Test System: AMES SALMONELLA TYPHIMURIUM, Strain/Indicator: TA98, Metabolic Activation: RAT, LIVER, S-9, AROCLOR 1254, Method: STANDARD PLATE): inactive; negative
mutagenic call [11]: active; positive
mutagenic call [12]: active; positive

Cc1cc(C(C#N)c2ccc(Cl)cc2)c(Cl)cc1NC(=O)c1cc(I)cc(I)c1O (stereo not given)
mutagenic call (End Point: In vivo chromosomal aberrations, Test System: Bone marrow cells, Species: Mouse, Strain/Sex: Swiss/Male, Route: Intraperitoneal): active; positive (structural changes)

O[C@@H]1C2=c3c(cc4cccc5ccc(c3c54)[C@H]1O)-c1ccccc12
mutagenic call [12]: inactive; negative

CCc1c2ccccc2cc2c1ccc1ccccc12
mutagenic call (Test System: AMES SALMONELLA TYPHIMURIUM, Strain/Indicator: TA98, Method: STANDARD PLATE): active; positive
mutagenic call (Test System: AMES SALMONELLA TYPHIMURIUM, Strain/Indicator: TA100, Metabolic Activation: RAT, LIVER, S-9, PHENOBARBITAL, Method: STANDARD PLATE): inactive; negative
mutagenic call (Test System: AMES SALMONELLA TYPHIMURIUM, Strain/Indicator: TA100, Method: STANDARD PLATE): active; positive

CC(C)OCC1CO1 (stereo not given)
mutagenic call [1]: active; positive
mutagenic call [2]: active; positive
mutagenic call [3]: active; positive
mutagenic call [4]: active; positive
mutagenic call [5]: active; positive
mutagenic call [6]: active; positive

CC1COCc2cc3c(cc21)C(C)(C)C(C)C3(C)C (stereo not given)
mutagenic call (Test System: AMES SALMONELLA TYPHIMURIUM, Strain/Indicator: TA97, Metabolic Activation: NONE, Method: STANDARD PLATE): inactive; negative
mutagenic call (Test System: AMES SALMONELLA TYPHIMURIUM, Strain/Indicator: TA97, Metabolic Activation: RAT LIVER S-9, AROCLOR 1254, Method: STANDARD PLATE): inactive; negative
mutagenic call [7]: inactive; negative
mutagenic call (Test System: AMES SALMONELLA TYPHIMURIUM, Strain/Indicator: TA98, Metabolic Activation: RAT LIVER S-9,AROCLOR 1254, Method: STANDARD PLATE): inactive; negative
mutagenic call [11]: inactive; negative
mutagenic call (Test System: AMES SALMONELLA TYPHIMURIUM, Strain/Indicator: TA100, Metabolic Activation: RAT LIVER S-9, AROCLOR 1254, Method: STANDARD PLATE): inactive; negative
mutagenic call (Test System: AMES SALMONELLA TYPHIMURIUM, Strain/Indicator: TA102, Metabolic Activation: NONE, Method: STANDARD PLATE): inactive; negative
mutagenic call (Test System: AMES SALMONELLA TYPHIMURIUM, Strain/Indicator: TA102, Metabolic Activation: RAT LIVER S-9, AROCLOR 1254, Method: STANDARD PLATE): inactive; negative
mutagenic call [8]: inactive; negative
mutagenic call (Test System: AMES SALMONELLA TYPHIMURIUM, Strain/Indicator: TA1535, Metabolic Activation: RAT LIVER S-9, AROCLOR 1254, Method: STANDARD PLATE): inactive; negative
mutagenic call [9]: inactive; negative
mutagenic call (Test System: AMES SALMONELLA TYPHIMURIUM, Strain/Indicator: TA1537, Metabolic Activation: RAT LIVER S-9, AROCLOR 1254, Method: STANDARD PLATE): inactive; negative
mutagenic call [10]: inactive; negative
mutagenic call (Test System: AMES SALMONELLA TYPHIMURIUM, Strain/Indicator: TA1538, Metabolic Activation: RAT LIVER S-9, AROCLOR 1254, Method: STANDARD PLATE): inactive; negative
mutagenic call (Test System: ESCHERICHIA COLI, Strain/Indicator: WP2 UVR A, Metabolic Activation: NONE, Method: STANDARD PLATE): inactive; negative
mutagenic call (Test System: ESCHERICHIA COLI, Strain/Indicator: WP2 UVR A, Metabolic Activation: RAT LIVER S-9, AROCLOR 1254, Method: STANDARD PLATE): inactive; negative
mutagenic call (Test System: UDS RAT HEPATOCYTES, Metabolic Activation: NONE, Method: NET NUCLEAR GRAIN COUNT): inactive; negative
